Laboratory results as given in ChEMBL document CHEMBL4308841, “Synthesis, in vitro antiproliferative activity, and kinase inhibitory effects of pyrazole-containing diarylureas and diarylamides” (Eur J Med Chem, 2018).

Legend:
DU-145 = experiment: Growth inhibition of human DU145 cells assessed as cell growth at 0.1 uM incubated for 48 hrs by sulforhodamine B assay relative to control; format: functional; conditions: DU-145, 48 h, read-out: Activity
HCT-116 = experiment: Growth inhibition of human HCT116 cells incubated for 48 hrs by sulforhodamine B assay; format: functional, cell-based; conditions: HCT-116, 48 h
SK-OV-3 = experiment: Growth inhibition of human SKOV3 cells assessed as cell growth at 0.1 uM incubated for 48 hrs by sulforhodamine B assay relative to control; format: functional; conditions: SK-OV-3, 48 h, read-out: Activity
786-0 [1] = experiment: Growth inhibition of human 786-0 cells assessed as cell growth at 0.1 uM incubated for 48 hrs by sulforhodamine B assay relative to control; format: functional; conditions: 786-0, 48 h, read-out: Activity
MCF7 [2] = experiment: Growth inhibition of human MCF7 cells assessed as cell growth at 0.1 uM incubated for 48 hrs by sulforhodamine B assay relative to control; format: functional; conditions: MCF7, 48 h, read-out: Activity
MCF7 [3] = experiment: Growth inhibition of human MCF7 cells assessed as cell growth at 0.01 uM incubated for 48 hrs by sulforhodamine B assay relative to control; format: functional; conditions: MCF7, 48 h, read-out: Activity
786-0 [4] = experiment: Growth inhibition of human 786-0 cells assessed as cell growth at 1 uM incubated for 48 hrs by sulforhodamine B assay relative to control; format: functional; conditions: 786-0, 48 h, read-out: Activity
NCI-H522 = experiment: Growth inhibition of human NCI-H522 cells assessed as cell growth at 0.01 uM incubated for 48 hrs by sulforhodamine B assay relative to control; format: functional; conditions: NCI-H522, 48 h, read-out: Activity
UACC-257 = experiment: Growth inhibition of human UACC257 cells assessed as cell growth at 0.1 uM incubated for 48 hrs by sulforhodamine B assay relative to control; format: functional; conditions: UACC-257, 48 h, read-out: Activity
NCI/ADR-RES = experiment: Growth inhibition of human NCI/ADR-RES cells assessed as cell growth at 0.1 uM incubated for 48 hrs by sulforhodamine B assay relative to control; format: functional; conditions: read-out: Activity
LOX IMVI [5] = experiment: Growth inhibition of human LOXIMVI cells incubated for 48 hrs by sulforhodamine B assay; format: functional
ACHN = experiment: Growth inhibition of human ACHN cells incubated for 48 hrs by sulforhodamine B assay; format: functional, cell-based
HOP-62 = experiment: Growth inhibition of human HOP62 cells assessed as cell growth at 100 uM incubated for 48 hrs by sulforhodamine B assay relative to control; format: functional; conditions: HOP-62, 48 h, read-out: Activity
K562 [6] = experiment: Growth inhibition of human K562 cells assessed as cell growth at 0.01 uM incubated for 48 hrs by sulforhodamine B assay relative to control; format: functional; conditions: K562, 48 h, read-out: Activity
M14 = experiment: Growth inhibition of human M14 cells incubated for 48 hrs by sulforhodamine B assay; format: functional, cell-based; conditions: M14, 48 h
LOX IMVI [7] = experiment: Growth inhibition of human LOXIMVI cells assessed as cell growth at 1 uM incubated for 48 hrs by sulforhodamine B assay relative to control; format: functional; conditions: read-out: Activity
CAKI-1 [8] = experiment: Growth inhibition of human Caki1 cells assessed as cell growth at 0.1 uM incubated for 48 hrs by sulforhodamine B assay relative to control; format: functional; conditions: CAKI-1, 48 h, read-out: Activity
SK-MEL-28 = experiment: Growth inhibition of human SK-MEL-28 cells assessed as cell growth at 100 uM incubated for 48 hrs by sulforhodamine B assay relative to control; format: functional; conditions: SK-MEL-28, 48 h, read-out: Activity
COLO 205 [9] = experiment: Growth inhibition of human COLO205 cells assessed as cell growth at 1 uM incubated for 48 hrs by sulforhodamine B assay relative to control; format: functional; conditions: COLO 205, 48 h, read-out: Activity
UACC-62 = experiment: Growth inhibition of human UACC62 cells assessed as cell growth at 0.1 uM incubated for 48 hrs by sulforhodamine B assay relative to control; format: functional; conditions: UACC-62, 48 h, read-out: Activity
OVCAR-8 = experiment: Growth inhibition of human OVCAR8 cells assessed as cell growth at 0.1 uM incubated for 48 hrs by sulforhodamine B assay relative to control; format: functional; conditions: OVCAR-8, 48 h, read-out: Activity
MDA-MB-468 = experiment: Growth inhibition of human MDA-MB-468 cells assessed as cell growth at 1 uM incubated for 48 hrs by sulforhodamine B assay relative to control; format: functional; conditions: MDA-MB-468, 48 h, read-out: Activity
NCI-H23 = experiment: Growth inhibition of human NCI-H23 cells assessed as cell growth at 0.01 uM incubated for 48 hrs by sulforhodamine B assay relative to control; format: functional; conditions: NCI-H23, 48 h, read-out: Activity
K562 [10] = experiment: Growth inhibition of human K562 cells assessed as cell growth at 1 uM incubated for 48 hrs by sulforhodamine B assay relative to control; format: functional; conditions: K562, 48 h, read-out: Activity
Malme-3M = experiment: Growth inhibition of human MALME-3M cells assessed as cell growth at 0.1 uM incubated for 48 hrs by sulforhodamine B assay relative to control; format: functional; conditions: read-out: Activity
CAKI-1 [11] = experiment: Growth inhibition of human Caki1 cells assessed as cell growth at 1 uM incubated for 48 hrs by sulforhodamine B assay relative to control; format: functional; conditions: CAKI-1, 48 h, read-out: Activity
U-251 = experiment: Growth inhibition of human U251 cells incubated for 48 hrs by sulforhodamine B assay; format: functional, cell-based; conditions: U-251, 48 h
NCI-H226 = experiment: Growth inhibition of human NCI-H226 cells assessed as cell growth at 0.01 uM incubated for 48 hrs by sulforhodamine B assay relative to control; format: functional; conditions: NCI-H226, 48 h, read-out: Activity
COLO 205 [12] = experiment: Growth inhibition of human COLO205 cells incubated for 48 hrs by sulforhodamine B assay; format: functional, cell-based; conditions: COLO 205, 48 h
SF-539 = experiment: Growth inhibition of human SF539 cells assessed as cell growth at 100 uM incubated for 48 hrs by sulforhodamine B assay relative to control; format: functional; conditions: SF-539, 48 h, read-out: Activity
[13] = read-out: LC50 (the source's name)
[14] = read-out: pLC50 (the source's name) (converted)

Compound `COc1cc(Cl)cc(-c2nn(-c3cccc(NC(=O)Nc4ccc(Cl)c(Cl)c4)c3)cc2-c2ccncc2)c1` has a growth at 0.1 µM (DU-145) of 97%, an IC50 (HCT-116) of 2020 nM and a GI50 (HCT-116; read-out: GI50) of 2020 nM. For the same compound, the CC50 (HCT-116; [13]) was greater than 100 µM, the TGI (HCT-116; read-out: TGI) was greater than 100 µM and the GI50 (HCT-116; read-out: pGI50 (converted)) was 2040 nM. It also gave a CC50 (HCT-116; [14]) greater than 100 µM, a TGI (HCT-116; read-out: pTGI (converted)) greater than 100 µM and a growth at 0.1 µM (SK-OV-3) of 90%. The growth at 0.1 µM (786-0 [1]) was 98%, the growth at 0.1 µM (MCF7 [2]) was 94% and the growth at 0.01 µM (MCF7 [3]) was 94%. For the same compound, the growth at 1 µM (786-0 [4]) was 84%, the growth at 0.01 µM (NCI-H522) was 95% and the growth at 0.1 µM (UACC-257) was 96%. The growth at 0.1 µM (NCI/ADR-RES) was 98%, the GI50 (LOX IMVI [5]; read-out: GI50) was 2910 nM and the CC50 (LOX IMVI [5]; [13]) was greater than 100 µM. The TGI (LOX IMVI [5]; read-out: TGI) was 12.4 µM, the GI50 (LOX IMVI [5]; read-out: pGI50 (converted)) was 2880 nM and the CC50 (LOX IMVI [5]; [14]) was greater than 100 µM. It also gave a TGI (LOX IMVI [5]; read-out: pTGI (converted)) of 30.9 µM, a GI50 (ACHN; read-out: GI50) of 3.23 µM and a CC50 (ACHN; [13]) greater than 100 µM. The TGI (ACHN; read-out: TGI) was greater than 100 µM, the GI50 (ACHN; read-out: pGI50 (converted)) was 3.24 µM and the CC50 (ACHN; [14]) was greater than 100 µM. The TGI (ACHN; read-out: pTGI (converted)) was greater than 100 µM, the growth at 100 µM (HOP-62) was 12% and the growth at 0.01 µM (K562 [6]) was 101%. For the same compound, the GI50 (M14; read-out: GI50) was 2520 nM, the CC50 (M14; [13]) was greater than 100 µM and the TGI (M14; read-out: TGI) was 10 µM. It also gave a GI50 (M14; read-out: pGI50 (converted)) of 3160 nM, a CC50 (M14; [14]) greater than 100 µM and a TGI (M14; read-out: pTGI (converted)) of 11 µM. It also gave a growth at 1 µM (LOX IMVI [7]) of 91%, a growth at 0.1 µM (CAKI-1 [8]) of 102% and a growth at 100 µM (SK-MEL-28) of -7%. For the same compound, the growth at 1 µM (COLO 205 [9]) was 91%, the growth at 0.1 µM (UACC-62) was 97% and the growth at 0.1 µM (OVCAR-8) was 101%. For the same compound, the growth at 1 µM (MDA-MB-468) was 69%, the growth at 0.01 µM (NCI-H23) was 93% and the growth at 1 µM (K562 [10]) was 67%. It also gave a growth at 0.1 µM (Malme-3M) of 50%, a growth at 1 µM (CAKI-1 [11]) of 79% and an IC50 (U-251) of 1700 nM. It also gave a GI50 (U-251; read-out: GI50) of 1700 nM, a CC50 (U-251; [13]) of 4.16 µM and a TGI (U-251; read-out: TGI) of 60.3 µM. It also gave a GI50 (U-251; read-out: pGI50 (converted)) of 1700 nM, a CC50 (U-251; [14]) of 41.7 µM and a TGI (U-251; read-out: pTGI (converted)) of 6.03 µM. The growth at 0.01 µM (NCI-H226) was 96%, the GI50 (COLO 205 [12]; read-out: GI50) was 1710 nM and the CC50 (COLO 205 [12]; [13]) was 6.4 µM. For the same compound, the TGI (COLO 205 [12]; read-out: TGI) was 33.1 µM, the GI50 (COLO 205 [12]; read-out: pGI50 (converted)) was 1700 nM and the CC50 (COLO 205 [12]; [14]) was 6.46 µM. The TGI (COLO 205 [12]; read-out: pTGI (converted)) was 3.31 µM and the growth at 100 µM (SF-539) was -40%.
